The target in one experiment is T1, MINA53 (Homo sapiens, UniProt Q8IUF8).
T1 construct: His6; made in house; host or cells: Escherichia coli BL21(DE3), pET-28b
The experiment can be described thus: MINA53 inhibition assay by Rpl27a peptides (MALDI-TOF MS). It counts as biochemical. The note with it: 10 μM 2OG; for IC50: 400 nM MINA53, 10 nM to 250 μM inhibitor Rpl peptide, 100 μM L-ascorbic acid, 10 μM ferrous ammonium sulfate, 50 mM HEPES pH 7.5, Rpl27a-His39 substrate, duplicate assays. How it is done: (§1) Having shown that our Rpl peptides are not, at least efficient, ROX substrates, we explored them as inhibitors of the recombinant human ROXs using MALDI-TOF assays (Rpl8/27a-N^τ-Me, Rpl8/27a-N^π-Me, Rpl8/27a-1-TriaA, Rpl8/27a-4-TriaA and Rpl8/27a-TetrA were excluded from the panels for NO66 and MINA53, respectively, due to signal overlap between the two peptides in the assays). Synthetic Rpl peptides (5 or 50 μM) were incubated with MINA53/NO66 (400 nM), ferrous ammonium sulfate (10 μM) and 2OG (10 μM) for 10 minutes, after which time the Rpl27a-His39 and Rpl8-His216 substrates were added, respectively, and the reactions were carried out for 2 hours at room temperature (Fig. 4 and Fig. S9, ESI ^†).
Fig. 4 Results for MINA53 inhibition at (a) 5 μM and (b) 50 μM by Rpl27a peptides. Error bars reported as standard errors (SE) carried out in duplicate. See Fig. 2 for analogue structures.
(§2) IC50 values were determined for the peptides that manifested clear inhibition potency by varying the concentration of the Rpl peptide inhibitor from 10 nM to 250 μM (Fig. 5 and Table 1).
(§3) IC50 values for MINA53 inhibition by Rpl27a peptides and NO66 inhibition by Rpl8 peptides. Conditions: 400 nM MINA53/NO66, 10 nM to 250 μM inhibitor Rpl peptide, 100 μM L-ascorbic acid, 10 μM ferrous ammonium sulfate, 10 μM 2OG in 50 mM MES buffer (pH 7.0) for NO66 and 50 mM HEPES (pH 7.5) for MINA53
(§4) MINA53 and NO66 inhibition assays in the presence of Rpl27a31-49 and Rpl8_205-224 peptides, respectively, were performed under the following assay conditions: 400 nM MINA53/NO66, 5/50 μM inhibitor Rpl peptide, 100 μM LAA, 10 μM FAS, 10 μM 2OG in 50 mM MES buffer (pH 7.0) for NO66 and 50 mM HEPES buffer (pH 7.5) for MINA53.[24] After 10 minutes of preincubation 5 μM of substrate peptide was added and the reaction was incubated for 2 hours at room temperature. A positive control reaction containing enzyme and unmodified peptide substrate without any inhibitors was included. After 2 hours the reaction was stopped by addition of 20 μL of 10% (v/v) LC-MS grade formic acid (Fisher Scientific), mixed 1 : 1 with α-cyano-4-hydroxycinnamic acid (CHCCA) matrix dissolved in a mixture of H2O and MeCN (1 : 1, v/v), and loaded onto an MTP 384 polished steel target to be analyzed by MALDI-TOF MS. MINA53/NO66 residual activity was determined by calculating the relative integral of the […] peptide to a control reaction in absence of potential inhibitory peptides. Experiments were carried out in duplicate.

A further experiment deals with T2, NO66 (Homo sapiens, UniProt Q9H6W3).
T2 construct: His6; made in house; host or cells: Escherichia coli BL21(DE3), pET-28b
T2 sequence (Q9H6W3 167-641): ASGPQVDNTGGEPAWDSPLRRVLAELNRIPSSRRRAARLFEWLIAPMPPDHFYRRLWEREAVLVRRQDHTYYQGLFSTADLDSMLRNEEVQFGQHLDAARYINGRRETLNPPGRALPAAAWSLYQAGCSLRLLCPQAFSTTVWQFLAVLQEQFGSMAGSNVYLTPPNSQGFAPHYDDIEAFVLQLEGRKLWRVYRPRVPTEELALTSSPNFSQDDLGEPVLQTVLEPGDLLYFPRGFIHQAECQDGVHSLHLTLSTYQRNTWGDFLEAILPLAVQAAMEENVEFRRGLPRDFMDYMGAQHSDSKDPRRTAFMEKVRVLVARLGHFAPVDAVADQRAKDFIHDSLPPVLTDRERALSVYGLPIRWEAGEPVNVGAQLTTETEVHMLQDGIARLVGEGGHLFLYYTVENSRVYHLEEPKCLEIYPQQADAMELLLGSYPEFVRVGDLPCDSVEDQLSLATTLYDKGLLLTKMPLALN
The experiment can be described thus: NO66 inhibition assay by Rpl8 peptides (MALDI-TOF MS). The settings on record: 10 μM 2OG; for IC50: 400 nM NO66, 10 nM to 250 μM inhibitor Rpl peptide, 100 μM L-ascorbic acid, 10 μM ferrous ammonium sulfate, 50 mM MES pH 7.0, Rpl8-His216 substrate, duplicate assays; for inhibition at 5 µM: 5 μM inhibitor Rpl8 peptide, 400 nM NO66, 100 μM LAA, 10 μM FAS, 50 mM MES pH 7.0, 10 min preincubation, then 5 μM Rpl8-His216 substrate, 2 hours, room temperature, duplicate. It counts as biochemical. Here is the method:
as §1, §2, §3, §4
3. Inhibition supporting figure
Figure S9. Results from NO66 inhibition at A) 5 µM and B) 50 µM of Rpl8-based peptides. Error
bars are standard errors (SE) of duplicate analyses. […]

The source of these data is article PMC9994133, “Substrate selectivity and inhibition of histidine JmjC hydroxylases MINA53 and NO66” (RSC Chemical Biology, 2023).

Square brackets hold non-standard residues; d marks the D form. Ends that are not written are not given here. Peptide text beside a SMILES is read from it. Aad = N[C@@H](CCCC(=O)O)C(=O)O

T1 sequence (Q8IUF8 26-464): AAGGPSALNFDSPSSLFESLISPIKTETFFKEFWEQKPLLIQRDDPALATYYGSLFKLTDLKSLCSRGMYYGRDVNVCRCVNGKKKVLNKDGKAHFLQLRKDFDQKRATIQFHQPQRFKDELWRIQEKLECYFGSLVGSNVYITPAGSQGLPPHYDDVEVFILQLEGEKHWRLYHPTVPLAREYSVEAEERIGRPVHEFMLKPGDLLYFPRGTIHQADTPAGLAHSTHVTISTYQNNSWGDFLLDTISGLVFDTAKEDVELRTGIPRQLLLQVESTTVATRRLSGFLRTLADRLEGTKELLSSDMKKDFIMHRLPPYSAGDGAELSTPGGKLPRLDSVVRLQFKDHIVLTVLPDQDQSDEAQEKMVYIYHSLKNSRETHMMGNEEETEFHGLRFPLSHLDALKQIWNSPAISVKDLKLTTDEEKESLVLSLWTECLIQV

As to GRGNAGGLQHHRINFDKYHP-NH2 [Rpl27a-Gln39], on MINA53, the IC50 (commonly the concentration at which inhibition is half-maximal) was 390 ± 160 nM.

Consider `CC[C@H](C)[C@H](NC(=O)[C@H](CCCNC(=N)N)NC(=O)[C@H](Cc1c[nH]cn1)NC(=O)[C@H](Cc1c[nH]cn1)NC(=O)[C@H](CCCC(N)=O)NC(=O)[C@H](CC(C)C)NC(=O)CNC(=O)CNC(=O)[C@H](C)NC(=O)[C@H](CC(N)=O)NC(=O)CNC(=O)[C@H](CCCNC(=N)N)NC(=O)CN)C(=O)N[C@@H](CC(N)=O)C(=O)N[C@@H](Cc1ccccc1)C(=O)N[C@@H](CC(=O)O)C(=O)N[C@@H](CCCCN)C(=O)N[C@@H](Cc1ccc(O)cc1)C(=O)N[C@@H](Cc1c[nH]cn1)C(=O)N1CCC[C@H]1C(N)=O` [Rpl27a-hGln39] (H-GRGNAGGL[Aad](NH2)HHRINFDKYHP-NH2), for which half-maximal inhibition at MINA53 (IC50) was put at 1470 ± 270 nM. This IC50 lies about 3.8-fold higher than the previous one. Regarding GRGNAGGLNHHRINFDKYHP-NH2 [Rpl27a-Asn39], half-maximal inhibition against MINA53 (IC50) was put at 1020 ± 110 nM. Besides, the “MINA53 inhibition at 5 μM (in words)” value on MINA53 (5 μM inhibitor Rpl27a peptide, 400 nM MINA53, 100 μM LAA, 10 μM FAS, 50 mM HEPES pH 7.5, 10 min preincubation, then 5 μM Rpl27a-His39 substrate, 2 hours, room temperature, duplicate) is “displayed inhibition”. Moreover, the “MINA53 inhibition at 50 μM (in words)” value at MINA53 (50 μM inhibitor Rpl27a peptide, 400 nM MINA53, 100 μM LAA, 10 μM FAS, 50 mM HEPES pH 7.5, 10 min preincubation, then 5 μM Rpl27a-His39 substrate, 2 hours, room temperature, duplicate) was “strong inhibition”.

With NPVEHPFGGGNNQHIGKPST-NH2 [Rpl8-Asn216], on NO66, the IC50 came out at 8860 ± 360 nM and the inhibition – broadly, the share of the control response that was lost under treatment – at 5 µM was approximately 50%. The matching figures for `CC[C@H](C)[C@H](NC(=O)[C@H](Cc1c[nH]cn1)NC(=O)[C@H](CCC(N)=O)NC(=O)[C@H](CCCC(N)=O)NC(=O)[C@H](CC(N)=O)NC(=O)CNC(=O)CNC(=O)CNC(=O)[C@H](Cc1ccccc1)NC(=O)[C@@H]1CCCN1C(=O)[C@H](Cc1c[nH]cn1)NC(=O)[C@H](CCC(=O)O)NC(=O)[C@@H](NC(=O)[C@@H]1CCCN1C(=O)[C@@H](N)CC(N)=O)C(C)C)C(=O)NCC(=O)N[C@@H](CCCCN)C(=O)N1CCC[C@H]1C(=O)N[C@@H](CO)C(=O)N[C@H](C(N)=O)[C@@H](C)O` [Rpl8-hGln216] (H-NPVEHPFGGGN[Aad](NH2)QHIGKPST-NH2; N-terminus assumed): 11200 ± 400 nM and approximately 50%.
